In ChEMBL document CHEMBL2169826, “Pharmacokinetic benefits of 3,4-dimethoxy substitution of a phenyl ring and design of isosteres yielding orally available cathepsin K inhibitors” (J Med Chem, 2012):
In brackets after ≈: the same amount, converted by molar mass.

Legend:
[1] = Oral bioavailability in rat; format: ADME, organism-based; settings: in vivo
[2] = Volume of distribution at steady state in rat; format: ADME, organism-based; settings: in vivo, read-out: Vdss
[3] = Metabolic stability of the compound in rat liver microsomes assessed as compound turnover after 120 mins
[4] = Clearance in rat; format: ADME, organism-based; settings: in vivo
[5] = Percentage unbound in rat plasma; format: ADME, cell-free
[6] = Percentage unbound in human plasma; format: ADME, cell-free
[7] = Oral bioavailability in Alderley Park Han Wistar rat at 2 mg/kg; format: ADME, organism-based; settings: in vivo
[8] = Volume of distribution at steady state in Alderley Park Han Wistar rat at 2 mg/kg, iv and 2 mg/kg, po; format: ADME, organism-based; settings: in vivo, read-out: Vdss
in vivo [9] = settings: Alderley Park Han Wistar, rat, plasma, iv, 2 mg/kg
[10] = Metabolic stability of the compound in human liver microsomes assessed as compound turnover after 120 mins
Procathepsin L = Procathepsin L (Homo sapiens, UniProt P07711); test: Inhibition of human recombinant cathepsin-L using Z-Phe-Arg-AMC as substrate preincubated for 15 mins measured after 1 hr by QFRET assay
Procathepsin L, sequence (P07711 whole entry): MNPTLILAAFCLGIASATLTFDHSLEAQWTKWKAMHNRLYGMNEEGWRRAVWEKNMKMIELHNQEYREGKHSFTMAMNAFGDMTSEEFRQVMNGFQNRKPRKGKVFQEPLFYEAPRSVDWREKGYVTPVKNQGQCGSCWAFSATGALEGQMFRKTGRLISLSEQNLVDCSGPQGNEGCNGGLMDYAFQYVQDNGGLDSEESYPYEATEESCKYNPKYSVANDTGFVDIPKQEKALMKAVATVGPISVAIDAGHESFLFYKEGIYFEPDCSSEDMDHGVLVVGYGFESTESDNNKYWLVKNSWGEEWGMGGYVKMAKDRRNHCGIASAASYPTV

in vitro [11] = settings: rat, hepatocytes
physchem = settings: buffer, pH 7.4
Cathepsin K = molecular target: T1, Cathepsin K (Homo sapiens, UniProt P43235); test: Inhibition of human recombinant cathepsin-k using Z-Phe-Arg-AMC as substrate preincubated for 15 mins measured after 1 hr by QFRET assay
T1 sequence (P43235 whole entry): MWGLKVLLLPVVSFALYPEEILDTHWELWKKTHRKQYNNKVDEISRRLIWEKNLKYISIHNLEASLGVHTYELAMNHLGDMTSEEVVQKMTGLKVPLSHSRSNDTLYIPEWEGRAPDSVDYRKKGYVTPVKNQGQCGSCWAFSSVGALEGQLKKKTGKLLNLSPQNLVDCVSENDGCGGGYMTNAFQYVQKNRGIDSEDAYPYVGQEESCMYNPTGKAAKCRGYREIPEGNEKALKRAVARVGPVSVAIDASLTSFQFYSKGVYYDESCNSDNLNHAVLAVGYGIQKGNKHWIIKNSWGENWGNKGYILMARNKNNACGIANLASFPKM

Cathepsin B = Cathepsin B (Homo sapiens, UniProt P07858); test: Inhibition of human recombinant cathepsin-B using Z-Arg-Arg-AMC as substrate preincubated for 15 mins measured after 1 hr by QFRET assay
Cathepsin S = Cathepsin S (Homo sapiens, UniProt P25774); test: Inhibition of human recombinant cathepsin-S using Z-Val-Val-Arg-AMC as substrate preincubated for 15 mins measured after 1 hr by QFRET assay
Cathepsin S, sequence (P25774 whole entry): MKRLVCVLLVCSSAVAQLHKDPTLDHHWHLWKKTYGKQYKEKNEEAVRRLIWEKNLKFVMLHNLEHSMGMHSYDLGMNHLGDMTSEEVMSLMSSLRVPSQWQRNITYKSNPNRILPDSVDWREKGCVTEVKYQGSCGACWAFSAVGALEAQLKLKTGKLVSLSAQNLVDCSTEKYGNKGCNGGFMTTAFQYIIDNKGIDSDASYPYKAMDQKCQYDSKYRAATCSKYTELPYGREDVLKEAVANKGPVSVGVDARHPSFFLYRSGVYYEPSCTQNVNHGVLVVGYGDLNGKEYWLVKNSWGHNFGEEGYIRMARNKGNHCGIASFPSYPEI

[12] = Aqueous solubility of the compound in at pH 7.4; settings: buffer
Homo sapiens = species on record: Homo sapiens; test: Selectivity ratio of IC50 for human recombinant cathepsin-K to IC50 for human recombinant cathepsin-B
[13] = Volume of distribution at steady state in Beagle dog at 1 mg/kg, iv and 1 mg/kg, po; format: ADME, organism-based, Canis lupus familiaris; settings: in vivo, read-out: Vdss
[14] = Percentage unbound in dog plasma; format: ADME, cell-free, Canis lupus familiaris
[15] = Oral bioavailability in Beagle dog at 1 mg/kg; format: ADME, organism-based, Canis lupus familiaris; settings: in vivo
[16] = Inhibition of osteoclastogenesis in human bone marrow-derived stem cells assessed as reduction of pit formation by measuring TRACP5b activity after 7 days by bone TRAP assay; format: functional; settings: 168 h
in vitro [17] = settings: human, hepatocytes
Cytochrome P450 3A4 = Cytochrome P450 3A4 (Homo sapiens, UniProt P08684); test: Inhibition of CYP3A4; format: ADME
Cytochrome P450 3A4, sequence (P08684 whole entry): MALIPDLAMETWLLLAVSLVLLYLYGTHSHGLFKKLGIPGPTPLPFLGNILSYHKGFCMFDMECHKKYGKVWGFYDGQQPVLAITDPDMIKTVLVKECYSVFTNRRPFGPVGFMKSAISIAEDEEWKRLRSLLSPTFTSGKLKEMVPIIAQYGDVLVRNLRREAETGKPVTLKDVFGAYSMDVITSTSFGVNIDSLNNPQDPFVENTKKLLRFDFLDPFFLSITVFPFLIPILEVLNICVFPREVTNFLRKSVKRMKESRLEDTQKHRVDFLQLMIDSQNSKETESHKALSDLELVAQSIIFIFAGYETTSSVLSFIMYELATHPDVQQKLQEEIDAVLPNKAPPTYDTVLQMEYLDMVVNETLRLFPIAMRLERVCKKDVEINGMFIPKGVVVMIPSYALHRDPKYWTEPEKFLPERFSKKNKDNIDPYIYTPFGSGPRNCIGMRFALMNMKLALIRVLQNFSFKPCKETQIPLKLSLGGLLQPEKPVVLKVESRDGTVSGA

in vivo [18] = settings: beagle, dog, plasma, iv, 1 mg/kg

SMILES	microsomal CLint at 2 h [3] [µL/min/mg]	fraction unbound [5]	fraction unbound [6]	bioavailability [7] [%]	Vd [8] [L/kg]	clearance (in vivo [9]) [mL/min/kg]	microsomal CLint at 2 h [10] [µL/min/mg]	IC50 (Procathepsin L) [nM]	hepatocyte CLint (in vitro [11]) [µL/min/1e6 cells]	logD (physchem)	IC50 (Cathepsin K) [nM]	IC50 (Cathepsin B) [nM]	IC50 (Cathepsin S) [nM]	solubility [12] [µM]	IC50 [16] [nM]	also measured
N#CC1(NC(=O)[C@@H]2CCCC[C@H]2C(=O)N2CCN(c3ccc(F)cc3)CC2)CC1	35	> 0.53	> 0.5	0	1.3	36										bioavailability [1]: 0%; Vd [2]: 1.3 L/kg; clearance [4]: 36 mL/min/kg
COc1ccc(N2CCN(C(=O)[C@@H]3CCCC[C@H]3C(=O)NCC#N)CC2)cc1OC	6.8						2.2	> 10000			6	1270	1090			Ratio IC50 (Homo sapiens): 211
Cc1noc2cc(N3CCN(C(=O)[C@@H]4CCCC[C@H]4C(=O)NC4(C#N)CC4)[C@H](C)C3)ccc12		0.14	0.2	21	2.1	29	9.3	> 10000	9.4	2.7	16	603	807	600 (≈ 270 µg/mL)		hepatocyte CLint (in vitro [17]): 30 µL/min/1e6 cells
Cc1nnc(C)c2cc(N3CCN(C(=O)[C@@H]4CCCC[C@H]4C(=O)NC4(C#N)CC4)[C@H](C)C3)ccc12		0.62	0.49	1.4	4.1			> 10000		1.9	17	2940	1750			
CCCN1CCN(c2ccc(C(=O)NC3(C(=O)NCC#N)CCCCC3)cc2)CC1 [BALICATIB]															26.6	
COc1ccc(N2CCN(C(=O)[C@@H]3CCCC[C@H]3C(=O)NC3(C#N)CC3)CC2)cc1OC	< 7.4		0.45	41		29	2.3	> 10000		1.4	9	3060	2290	> 2500	126	Ratio IC50 (Homo sapiens): 340; bioavailability [15]: 79%; clearance (in vivo [18]): 12 mL/min/kg
CC(C)(F)C[C@H](N[C@@H](c1ccc(-c2ccc(S(C)(=O)=O)cc2)cc1)C(F)(F)F)C(=O)NC1(C#N)CC1 [ODANACATIB]															100	
N#CC1(NC(=O)[C@@H]2CCCC[C@H]2C(=O)N2CCN(c3ccccc3)CC2)CC1	107	0.28	> 0.28	0.2	1.1	19	6.9	> 10000	36		15	1440	2260			
COc1cccc2c3c([nH]c12)CCN(C(=O)[C@@H]1CCCC[C@H]1C(=O)NC1(C#N)CC1)C3															32	

The next lines start with results.

microsomal CLint at 2 h [3] [µL/min/mg]	fraction unbound [5]	fraction unbound [6]	bioavailability [7] [%]	Vd [8] [L/kg]	clearance (in vivo [9]) [mL/min/kg]	microsomal CLint at 2 h [10] [µL/min/mg]	IC50 (Procathepsin L) [nM]	hepatocyte CLint (in vitro [11]) [µL/min/1e6 cells]	logD (physchem)	IC50 (Cathepsin K) [nM]	IC50 (Cathepsin B) [nM]	IC50 (Cathepsin S) [nM]	solubility [12] [µM]	SMILES	IC50 [16] [nM]	also measured
13	0.41	0.24	55	0.7	15	4.2	> 10000	< 2	2.3	5	1690	1100	> 1700	COc1ccc(N2CCN(C(=O)[C@@H]3CCCC[C@H]3C(=O)NC3(C#N)CC3)[C@H](C)C2)nc1OC		
	0.53	0.39	46	1.2			> 10000		1.9	4	1850	1450	> 2400	COc1ccc(N2CCN(C(=O)[C@@H]3CCCC[C@H]3C(=O)NC3(C#N)CC3)[C@H](C)C2)cc1OC	40	Vd [13]: 0.8 L/kg; fraction unbound [14]: 0.39; bioavailability [15]: 71%
< 2.2		> 0.5	16		22	< 2	> 10000			18	2400	2150	2500 (≈ 1150 µg/mL)	CS(=O)(=O)c1ccc(N2CCN(C(=O)[C@@H]3CCCC[C@H]3C(=O)NC3(C#N)CC3)CC2)cc1		
33	0.072	0.081	57	2.8	39	9	> 10000	13	3.5	3	1140	1370	200 (≈ 92.9 µg/mL)	COc1cc(N2CCN(C(=O)[C@@H]3CCCC[C@H]3C(=O)NC3(C#N)CC3)[C@H](C)C2)ccc1C1CC1		hepatocyte CLint (in vitro [17]): 25 µL/min/1e6 cells; INH (Cytochrome P450 3A4): 1.6 µM
15	0.3	0.28	87	2.5	19	8.8	> 10000	4.6	2.7	8	766	1250	> 1100	Cc1nn(C)c2cc(N3CCN(C(=O)[C@@H]4CCCC[C@H]4C(=O)NC4(C#N)CC4)[C@H](C)C3)ccc12		hepatocyte CLint (in vitro [17]): 4.7 µL/min/1e6 cells
48	0.25	0.46	3.5	1.1	> 73	< 2	> 10000	42	1.7	14	1440		> 2000	COc1ccc(N2CCN(C(=O)[C@@H]3CCCC[C@H]3C(=O)NC3(C#N)CC3)CC2)cc1		
	0.27	0.25	64	2.5			> 10000		2.8	9	971	1230	> 1400	Cc1nn(C)c2ccc(N3CCN(C(=O)[C@@H]4CCCC[C@H]4C(=O)NC4(C#N)CC4)[C@H](C)C3)cc12		
